Measured values from patent EP0445023A1, “Vehicle for a therapeutically active agent for external use and antiseptic preparation comprising said vehicle” (INNOTHERA, priority 1990, dated 1991).

Assay: ex vivo transcutaneous passage
Assay type: in vitro ADME
Details: peau épilée ou rasée de rats, applied as the antiseptic preparation

In the case of `O=C(Nc1ccc(Cl)cc1)Nc1ccc(Cl)c(Cl)c1` [principe actif, trichloro-3,4,4′ carbanilide], the “passage transcutané du principe actif” value is reported as “n'ont pas permis de déceler un passage transcutané”.
